Laboratory results from patent USRE48461E1, “Modulation of androgen receptor expression” (Ionis Pharmaceuticals, Inc., priority 2012, dated 2021).

How the values were obtained:
Type in all cases: cell-based, human
[1] = system: 22RV1 cells; assay: 22RV1 cell proliferation with/without DHT (MTT); settings: RNAiMAX, 5 days
Procedure: 22RV1cells were plated at 1,500 cells per well. […] Separate sets of cells, also treated with each of the antisense oligonucleotides, were treated with DHT added on day 1 at a final concentration of 1 nM. After a treatment period of 5 days, the proliferative ability of the cancer cells was measured using the standard MTT assay. Results are presented in Table 69 as percent inhibition of proliferation, relative to non-treated cells.

[2] = system: PSA mRNA; assay: PSA expression in LNCaP cells (complete, CSS+DHT medium); settings: for Percent inhibition of PSA expression in LNCaP cells cultured in CSS + DHT medium: CSS + DHT (1 nM) medium, 48 hrs; for Percent inhibition of PSA expression in LNCaP cells cultured in complete medium: 48 hours
Procedure: (§1) Cells were plated at 1,000 cells per well. […] ISIS 549148 was included as a negative control. […] After an incubation period of 48 hours, RNA levels of AR, PSA and TMPRSS2 were measured.
(§2) Cells were plated at 2,000 cells per well and cultured in phenol red-free RPMI supplemented with 5% charcoal stripped serum (Gibco) media for 16 hours. […] ISIS 549148 was included as a negative control. […] After an incubation period of 4 hrs, DHT was added to the medium to a final concentration of 1 nM as indicated. RNAs were collected 48 hrs later and levels of AR, PSA and TMPRSS2 were measured. In the absence of DHT, AR expression in LNCaP cells was 95%, PSA expression was 7% and TMPRSS2 expression was 24% compared to the untreated control.

[3] = system: TMPRSS2 mRNA; assay: TMPRSS2 expression in LNCaP cells (complete, CSS+DHT medium); settings: for Percent inhibition of TMPRSS2 expression in LNCaP cells cultured in CSS + DHT medium: CSS + DHT (1 nM) medium, 48 hrs; for Percent inhibition of TMPRSS2 expression in LNCaP cells cultured in complete medium: 48 hours
Procedure: as §1, §2

[4] = system: C4-2 cells; assay: C4-2 cell proliferation (complete or CSS+DHT medium); settings: C4-2 cells, 5 days
Procedure: After a treatment period of 5 days in complete medium or CSS+1 nM DHT medium, the proliferative capacity of the cancer cells was measured with using CellTiter 96® AQueous One Solution or CellTiter-Glo® Cell Proliferation kit (Promega), following the manufacturer's instructions. […] The proliferative capacity of cells cultured in CSS medium without DHT is 17% of untreated control levels.

[5] = system: C4-2B cells; assay: C4-2B cell proliferation (complete or CSS+DHT medium; Example 30); settings: C4-2B cells, 5 days
Procedure: After a treatment period of 5 days in complete medium or CSS+1 nM DHT medium, the proliferative capacity of the cancer cells was measured with using CellTiter 96® AQueous One or CellTiter-Glo® Solution Cell Proliferation kit (Promega), following the manufacturer's instructions.

[6] = system: full length AR mRNA; assay: Full-length AR RNA in VCaP cells (complete, CSS+DHT medium); settings: RNAiMax, 48 hrs
Procedure: Cells were plated at 10,000 cells per well. […] After an incubation period of 48 hrs, RNA levels of full length AR, the V7 variant, PSA and TMPRSS2 were measured.
After an incubation period of 48 hrs, RNA levels of full length AR, the V7 variant, PSA and TMPRSS2 were measured. The data is presented in Tables 108 expressed as percent expression of gene levels compared to the untreated control.
Cells were plated at 15,000 cells per well and cultured in CSS media for 16 hours. […] After 4 hrs, 1 nM DHT was added. […] After an incubation period of 48 hrs, RNA levels of AR, PSA and TMPRSS2 were measured.

[7] = system: PSA mRNA; assay: PSA expression in 22RV1 cells; settings: RNAiMax, 48 hrs
Procedure: (§3) Cells were plated at 1,000 cells per well. […] After an incubation period of 48 hrs, RNA levels of full length AR, the V7 variant, PSA and TMPRSS2 were measured.
(§4) After an incubation period of 48 hrs, RNA levels of full length AR, the V7 variant, PSA and TMPRSS2 were measured.
(§5) Cells were plated at 2,000 cells per well and cultured in CSS media for 16 hours. […] After 4 hrs, 1 nM DHT was added. […] After an incubation period of 48 hrs, RNA levels of AR, AR V7 variant, PSA and TMPRSS2 were measured.

[8] = system: TMPRSS2 mRNA; assay: TMPRSS2 expression in 22RV1 cells; settings: RNAiMax, 48 hrs
Procedure: as §3, §4, §5

With “GGCTACTACGCCGTCA (3-10-3 (S)-cEt gapmer, chemistry not fully specified) [ISIS 549148, reference compound]” the “Percent inhibition of 22RV1 cell proliferation” value ([1]; +DHT (1 nM), ASO 1.34 nM) was 0%, the “Percent inhibition of 22RV1 cell proliferation” value ([1]; +DHT (1 nM), ASO 4.0 nM) was 0% and the “Percent inhibition of 22RV1 cell proliferation” value ([1]; +DHT (1 nM), ASO 13.4 nM) was 3%. For the same sequence, the “Percent inhibition of 22RV1 cell proliferation” value ([1]; +DHT (1 nM), ASO 40.0 nM) was 0%, the “Percent inhibition of 22RV1 cell proliferation” value ([1]; −DHT, ASO 1.34 nM) was 0% and the “Percent inhibition of 22RV1 cell proliferation” value ([1]; −DHT, ASO 4.0 nM) was 0%. The “Percent inhibition of 22RV1 cell proliferation” value ([1]; −DHT, ASO 13.4 nM) was 4%, the “Percent inhibition of 22RV1 cell proliferation” value ([1]; −DHT, ASO 40.0 nM) was 0% and the “Percent inhibition of PSA expression in LNCaP cells cultured in CSS + DHT medium” value ([2]; 0.04 μM) was 0%. The “Percent inhibition of PSA expression in LNCaP cells cultured in CSS + DHT medium” value ([2]; 0.2 μM) was 8%, the “Percent inhibition of PSA expression in LNCaP cells cultured in CSS + DHT medium” value ([2]; 1 μM) was 0% and the “Percent inhibition of PSA expression in LNCaP cells cultured in CSS + DHT medium” value ([2]; 5.0 μM) was 9%. For the same sequence, the “Percent inhibition of PSA expression in LNCaP cells cultured in complete medium” value ([2]; 0.04 μM) was 0%, the “Percent inhibition of PSA expression in LNCaP cells cultured in complete medium” value ([2]; 0.2 μM) was 0% and the “Percent inhibition of PSA expression in LNCaP cells cultured in complete medium” value ([2]; 1 μM) was 0%. The “Percent inhibition of PSA expression in LNCaP cells cultured in complete medium” value ([2]; 5.0 μM) was 0%, the “Percent inhibition of TMPRSS2 expression in LNCaP cells cultured in CSS + DHT medium” value ([3]; 0.04 μM) was 0% and the “Percent inhibition of TMPRSS2 expression in LNCaP cells cultured in CSS + DHT medium” value ([3]; 0.2 μM) was 0%. For the same sequence, the “Percent inhibition of TMPRSS2 expression in LNCaP cells cultured in CSS + DHT medium” value ([3]; 1 μM) was 1%, the “Percent inhibition of TMPRSS2 expression in LNCaP cells cultured in CSS + DHT medium” value ([3]; 5.0 μM) was 10% and the “Percent inhibition of TMPRSS2 expression in LNCaP cells cultured in complete medium” value ([3]; 0.04 μM) was 0%. The “Percent inhibition of TMPRSS2 expression in LNCaP cells cultured in complete medium” value ([3]; 0.2 μM) was 0%, the “Percent inhibition of TMPRSS2 expression in LNCaP cells cultured in complete medium” value ([3]; 1 μM) was 0% and the “Percent inhibition of TMPRSS2 expression in LNCaP cells cultured in complete medium” value ([3]; 5.0 μM) was 0%. For the same sequence, the “Proliferation (% untreated control)” value ([4]; CSS + DHT medium, 0.04 μM) was 102 % untreated control, the “Proliferation (% untreated control)” value ([4]; CSS + DHT medium, 0.2 μM) was 82 % untreated control and the “Proliferation (% untreated control)” value ([4]; CSS + DHT medium, 1 μM) was 82 % untreated control. The “Proliferation (% untreated control)” value ([4]; CSS + DHT medium, 5.0 μM) was 91 % untreated control, the “Proliferation (% untreated control)” value ([4]; complete medium, 0.04 μM) was 106 % untreated control and the “Proliferation (% untreated control)” value ([4]; complete medium, 0.2 μM) was 112 % untreated control. For the same sequence, the “Proliferation (% untreated control)” value ([4]; complete medium, 1 μM) was 91 % untreated control, the “Proliferation (% untreated control)” value ([4]; complete medium, 5.0 μM) was 94 % untreated control and the “Proliferation (% untreated control)” value ([5]; CSS + DHT medium, 0.04 μM) was 109 % untreated control. The “Proliferation (% untreated control)” value ([5]; CSS + DHT medium, 0.2 μM) was 131 % untreated control, the “Proliferation (% untreated control)” value ([5]; CSS + DHT medium, 1 μM) was 119 % untreated control and the “Proliferation (% untreated control)” value ([5]; CSS + DHT medium, 5.0 μM) was 114 % untreated control. For the same sequence, the “Proliferation (% untreated control)” value ([5]; complete medium, 0.04 μM) was 119 % untreated control, the “Proliferation (% untreated control)” value ([5]; complete medium, 0.2 μM) was 97 % untreated control and the “Proliferation (% untreated control)” value ([5]; complete medium, 1 μM) was 103 % untreated control. The “Proliferation (% untreated control)” value ([5]; complete medium, 5.0 μM) was 98 % untreated control, the “Percent inhibition of full-length AR” value ([6]; CSS medium, 1.34 nM) was 0% and the “Percent inhibition of full-length AR” value ([6]; CSS medium, 4.0 nM) was 0%. For the same sequence, the “Percent inhibition of full-length AR” value ([6]; CSS medium, 13.4 nM) was 0%, the “Percent inhibition of full-length AR” value ([6]; CSS medium, 40 nM) was 0% and the “Percent inhibition of full-length AR” value ([6]; complete medium, 1.34 nM) was 0%. For the same sequence, the “Percent inhibition of full-length AR” value ([6]; complete medium, 4.0 nM) was 8%, the “Percent inhibition of full-length AR” value ([6]; complete medium, 13.4 nM) was 5% and the “Percent inhibition of full-length AR” value ([6]; complete medium, 40 nM) was 17%. The “Percent inhibition of PSA expression” value ([7]; CSS + DHT medium, 1.34 nM) was 8%, the “Percent inhibition of PSA expression” value ([7]; CSS + DHT medium, 4.0 nM) was 23% and the “Percent inhibition of PSA expression” value ([7]; CSS + DHT medium, 13.4 nM) was 29%. For the same sequence, the “Percent inhibition of PSA expression” value ([7]; complete medium, 1.34 nM) was 9%, the “Percent inhibition of PSA expression” value ([7]; complete medium, 4.0 nM) was 11% and the “Percent inhibition of PSA expression” value ([7]; complete medium, 13.4 nM) was 17%. For the same sequence, the “Percent inhibition of PSA expression” value ([7]; complete medium, 40 nM) was 27%, the “Percent inhibition of TMPRSS2 expression” value ([8]; CSS + DHT medium, 1.34 nM) was 0% and the “Percent inhibition of TMPRSS2 expression” value ([8]; CSS + DHT medium, 4.0 nM) was 3%. The “Percent inhibition of TMPRSS2 expression” value ([8]; CSS + DHT medium, 13.4 nM) was 1%, the “Percent inhibition of TMPRSS2 expression” value ([8]; complete medium, 1.34 nM) was 15% and the “Percent inhibition of TMPRSS2 expression” value ([8]; complete medium, 4.0 nM) was 9%. For the same sequence, the “Percent inhibition of TMPRSS2 expression” value ([8]; complete medium, 13.4 nM) was 14% and the “Percent inhibition of TMPRSS2 expression” value ([8]; complete medium, 40 nM) was 4%.
